Data as given in ChEMBL document CHEMBL1126400, “Synthesis and biological activity of the platelet-activating factor antagonist ()-trans-2-(3-methoxy-4-phenylsulfonylethoxy-5-n-propylsulfonylphenyl)-5-(3,4,5-trimethoxyphenyl)tetrahydrofuran (L-671,284) and its analogs” (Bioorg Med Chem Lett, 1992).

What was measured:
[1] = target: T1, Platelet-activating factor receptor (Homo sapiens, UniProt P25105); experiment: In vitro inhibition of [3H]-C18 PAF binding to human platelet membrane Platelet activating factor receptor.; parameters: concentration or dose not given beside the values; conditions: concentration not given here
T1 sequence (P25105 whole entry): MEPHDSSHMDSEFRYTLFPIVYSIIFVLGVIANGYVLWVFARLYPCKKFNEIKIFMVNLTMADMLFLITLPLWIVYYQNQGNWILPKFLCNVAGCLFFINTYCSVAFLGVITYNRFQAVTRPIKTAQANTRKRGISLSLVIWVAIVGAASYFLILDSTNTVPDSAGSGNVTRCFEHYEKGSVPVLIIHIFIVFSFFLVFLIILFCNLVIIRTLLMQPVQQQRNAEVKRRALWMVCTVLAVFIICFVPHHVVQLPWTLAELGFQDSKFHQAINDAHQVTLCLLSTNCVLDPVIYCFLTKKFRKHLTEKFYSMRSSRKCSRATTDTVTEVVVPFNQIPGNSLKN

[2] = target: Platelet-activating factor receptor (Rattus norvegicus) (UniProt P46002); experiment: In vivo inhibition of 10 nmole/kg PAF-induced hemoconcentration was determined at 1 mg/kg peroral administration; type: functional, organism-based; parameters: dose 1 mg/kg
Chain of Platelet-activating factor receptor (Rattus norvegicus) (P46002 whole entry): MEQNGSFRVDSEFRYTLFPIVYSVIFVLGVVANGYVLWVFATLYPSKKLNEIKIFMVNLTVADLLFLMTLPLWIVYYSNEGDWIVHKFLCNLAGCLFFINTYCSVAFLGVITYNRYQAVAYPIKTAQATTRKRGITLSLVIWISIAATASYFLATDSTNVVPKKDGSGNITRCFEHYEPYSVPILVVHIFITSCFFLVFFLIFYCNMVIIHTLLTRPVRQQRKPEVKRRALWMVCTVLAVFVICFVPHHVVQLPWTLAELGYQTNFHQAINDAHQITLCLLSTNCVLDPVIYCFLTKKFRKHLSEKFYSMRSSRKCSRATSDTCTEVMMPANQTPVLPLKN

[3] = target: Platelet-activating factor receptor (Rattus norvegicus) (UniProt P46002); experiment: In vivo inhibition of 10 nmole/kg PAF-induced plasma N-acetyl-beta-glucosaminidase (NAGA) after oral administration to rats; type: organism-based; parameters: concentration or dose not given beside the values
[4] = target: T1, Platelet-activating factor receptor; experiment: Compound was evaluated for inhibition of binding of [3H]-C18 PAF to human platelet membrane Platelet activating factor receptor
[5] = tested on: Rattus norvegicus; experiment: Compound inhibits 10 nmole/kg PAF-induced hemoconcentration and plasma N-acetyl-beta-glucosaminidase increase in male rats; type: functional
[6] = species: Homo sapiens; experiment: Inhibitory activity of compound was determined by 3E-7M PAF-induced degranulation of PAFas measured by myeloperoxidase secretion; type: functional
[7] = target: T1, Platelet-activating factor receptor; experiment: Compound was evaluated for inhibitory activity of binding of [3H]-C18 PAF to human platelet membrane Platelet activating factor receptor
[8] = tested on: Rattus norvegicus; experiment: Compound inhibits 10 nmole/kg PAF-induced hemoconcentration and plasma N-acetyl-beta-glucosaminidase increase in female rats; type: functional
[9] = tested on: Rattus norvegicus; experiment: Drop in blood pressure was observed after 15 minutes of intravenous administration of 0.2 mg/kg compound; type: functional
[10] = tested on: Rattus norvegicus; experiment: In vivo inhibition of 10 nmole/kg PAF-induced hemoconcentration was determined at 1 mg/kg peroral administration in rats; type: functional; conditions: route oral
[11] = target: T1, Platelet-activating factor receptor; experiment: In vitro inhibition of [3H]-C18 PAF binding to human platelet membrane Platelet activating factor receptor was determined

Row | Compound | inhibition [1] [%] | inhibition [2] [%] | inhibition [3] [%] | other results
1 | CCCS(=O)(=O)c1cc(C2CC[C@@H](c3cc(OC)c(OC)c(OC)c3)O2)cc(OC)c1OCCSc1ccccc1N (some centres not stated) | 57 | – | – | –
2 | CCCS(=O)(=O)c1cc(C2CC[C@@H](c3cc(OC)c(OC)c(OC)c3)O2)cc(OC)c1OCCSc1ccccc1 (some centres not stated) | 93 | 95 | 84 | –
3 | CCCS(=O)(=O)c1cc(C2CC[C@@H](c3cc(OC)c(OC)c(OC)c3)O2)cc(OC)c1OCCSc1ccc(C(=O)O)cc1 (some centres not stated) | 38 | 11 | 23 | –
4 | CCCS(=O)(=O)c1cc(C2CC[C@@H](c3cc(OC)c(OC)c(OC)c3)O2)cc(OC)c1OCCSc1ccc(O)cc1 (some centres not stated) | 100 | 63 | 75 | –
5 | CCCS(=O)(=O)c1cc(C2CC[C@@H](c3cc(OC)c(OC)c(OC)c3)O2)cc(OC)c1OCCSc1ccc(N)cc1 (some centres not stated) | 60 | – | 58 | inhibition in vivo at 1 mg/kg [10]: 56%
6 | CCCS(=O)(=O)c1cc(C2CC[C@@H](c3cc(OC)c(OC)c(OC)c3)O2)cc(OC)c1OCCSc1ccncc1 (some centres not stated) | 73 | 15 | 15 | –
7 | CCCS(=O)(=O)c1cc(C2CC[C@@H](c3cc(OC)c(OC)c(OC)c3)O2)cc(OC)c1OCCSc1ccc(C(N)=O)cc1 (some centres not stated) | 70 | 26 | 32 | –
8 | CCCS(=O)(=O)c1cc(C2CC[C@@H](c3cc(OC)c(OC)c(OC)c3)O2)cc(OC)c1OCCSc1cccc(N)c1 (some centres not stated) | 80 | – | 4 | inhibition in vivo at 1 mg/kg [10]: 7%
9 | CCCOc1c(OC)cc([C@H]2CC[C@H](c3cc(OC)c(OC)c(OC)c3)O2)cc1S(C)(=O)=O (single isomer, unassigned) | – | – | – | Ki [11]: 14.3 nM
10 | CCCS(=O)(=O)c1cc(C2CC[C@@H](c3cc(OC)c(OC)c(OC)c3)O2)cc(OC)c1OCCSc1ccccc1O (some centres not stated) | 58 | – | – | –
11 | CCCS(=O)(=O)c1cc(C2CC[C@@H](c3cc(OC)c(OC)c(OC)c3)O2)cc(OC)c1OCCSc1cccc(O)c1 (some centres not stated) | 61 | 27 | 29 | –
12 | CCCS(=O)(=O)c1cc(C2CC[C@@H](c3cc(OC)c(OC)c(OC)c3)O2)cc(OC)c1OCCSc1ccc(N(C)C)cc1 (some centres not stated) | 66 | 66 | 57 | –
13 | CCCS(=O)(=O)c1cc(C2CC[C@@H](c3cc(OC)c(OC)c(OC)c3)O2)cc(OC)c1OCCSc1ncc[nH]1 (some centres not stated) | 60 | 11 | 13 | –

Now from value to compound, other results behind:

Row | inhibition [1] [%] | inhibition [2] [%] | inhibition [3] [%] | Compound | other results
14 | 93 | 33 | 39 | CCCS(=O)(=O)c1cc(C2CC[C@@H](c3cc(OC)c(OC)c(OC)c3)O2)cc(OC)c1OCCSc1ccc(C#N)cc1 (some centres not stated) | –
15 | 72 | 94 | 94 | CCCS(=O)(=O)c1cc(C2CC[C@@H](c3cc(OC)c(OC)c(OC)c3)O2)cc(OC)c1OCCS(=O)(=O)c1ccccc1 (some centres not stated) | Ki [4]: 1 nM; ED50 [5]: 0.26 mg/kg; IC50 [6]: 0.78 nM; IC50 [7]: 1 nM; ED50 [8]: 0.22 mg/kg; Decrease in blood pressure [9]: 79 mmHg
16 | 74 | 5 | 0 | CCCS(=O)(=O)c1cc(C2CC[C@@H](c3cc(OC)c(OC)c(OC)c3)O2)cc(OC)c1OCC[S+]([O-])c1ccc(C#N)cc1 (some centres not stated) | –
17 | 69 | 0 | 1 | CCCS(=O)(=O)c1cc(C2CC[C@@H](c3cc(OC)c(OC)c(OC)c3)O2)cc(OC)c1OCCS(=O)(=O)c1ccc(C#N)cc1 (some centres not stated) | –
18 | 41 | – | – | CCCS(=O)(=O)c1cc(C2CC[C@@H](c3cc(OC)c(OC)c(OC)c3)O2)cc(OC)c1OCCS(=O)(=O)c1ccc(N)cc1 (some centres not stated) | –
19 | 45 | 0 | 5 | CCCS(=O)(=O)c1cc(C2CC[C@@H](c3cc(OC)c(OC)c(OC)c3)O2)cc(OC)c1OCCS(=O)(=O)c1ccncc1 (some centres not stated) | –
20 | 0 | – | – | CCCS(=O)(=O)c1cc(C2CC[C@@H](c3cc(OC)c(OC)c(OC)c3)O2)cc(OC)c1OCC[S+]([O-])c1ccc(N)cc1 (some centres not stated) | –
21 | 73 | – | 44 | CCCS(=O)(=O)c1cc(C2CC[C@@H](c3cc(OC)c(OC)c(OC)c3)O2)cc(OC)c1OCC[S+]([O-])c1ccc(O)cc1 (some centres not stated) | inhibition in vivo at 1 mg/kg [10]: 25%
22 | 88 | – | 13 | CCCS(=O)(=O)c1cc(C2CC[C@@H](c3cc(OC)c(OC)c(OC)c3)O2)cc(OC)c1OCCS(=O)(=O)c1ccc(O)cc1 (some centres not stated) | inhibition in vivo at 1 mg/kg [10]: 7%
